# Test results published in US20100278776A1, “PHARMACEUTICAL COMPOSITIONS FOR MODULATING A KINASE CASCADE AND METHODS OF USE THEREOF” (Kinex Pharmaceuticals, LLC, priority 2007, published 2010).
# Where a name gives a salt, the structure may show the parent alone. Read-outs that look alike come from different tables or passages of the source.
# Assays:
# [1] = test system: HT29 cell line; assay: Cell growth inhibition (BrdU assay), HT29; assay type: cell-based, human
# Experimental: The HT29 cell line is a NCI standard human colon carcinoma cell line.
# (§1) In the BrdU Assay for cell growth inhibition, quantitation of cell proliferation was based on the measurement of BrdU incorporation during DNA synthesis. The Cell Proliferation ELISA BrdU assay kit (colorimetric) was obtained from Roche Applied Science and performed as per vendor instructions.
# (§2) The growth inhibition (GI) is determined from the formula GI=(T0−Tn×100/T0−CONn) where T0 is the BrdU growth of untreated cells at time “0”, Tn is the BrdU growth of treated cells at day “n” and CONn is the control BrdU growth of control cells at day “n”. The GI50 was extrapolated and the data plotted using XL-Fit 4.0 software.
# (§3) For 96 well culture plate experiments, c-Src 3T3 medium was supplemented with 10 mM HEPES buffer. HT-29 cells were seeded in standard tissue culture 96-well plates and c-Src 3T3 cells were seeded in 96-well plates coated with Poly-D-lysine (BIOCOAT™). To increase CO2 diffusion, c-Src 3T3 96-well plates were incubated with their lids raised by ˜2 mm using sterile rubber caps.
# (§4) Samples were reconstituted in DMSO at 20 mM and intermediate dilutions made using DMEM containing 10% FBS. […] Plates were assayed for BrdU and the data analyzed as above for GI50.
# [2] = target: Lck(h) (Homo sapiens, UniProt P06239); assay: Isolated kinase activity, Lck; assay type: biochemical; conditions: @ 10 μM
# [3] = test system: EGFR tyrosine kinase (EGF Y845); assay: EGFR tyrosine kinase autophosphorylation in whole cells; assay type: cell-based
# Experimental: (§5) AZ28 serves as a positive comparator to show what a validated Src inhibitor should do in these assays. After treatment with compound, cells were lysed, subjected to PAGE and probed with a battery of antibodies. […] In addition, off-target protein phosphorylation was also investigated. Further, induction of apoptosis was evaluated via Caspase 3 cleavage. Multiple doses of each compound were tested because the trends in response to increasing drug concentration are the most reliable indicator of activity.
# This site is not a direct Src phosphorylation site.
# [4] = test system: Caspase-3 cleavage; assay: Induction of apoptosis via Caspase 3 cleavage; assay type: cell-based; conditions: HT29 and c-Src527F/NIH-3T3 cells
# Experimental: as §5
# Cleavage of Caspase-3 is a good measure of induction of apoptosis.
# [5] = target: Yes(h) (Homo sapiens, UniProt P07947); assay: Isolated kinase activity, Yes; assay type: biochemical; conditions: @ 10 μM
# [6] = target: Lyn(h) (Homo sapiens, UniProt P07948); assay: Isolated kinase activity, Lyn; assay type: biochemical; conditions: @ 10 μM
# [7] = target: ZAP-70(h) (Homo sapiens, UniProt P43403); assay: Isolated kinase activity, ZAP-70; assay type: biochemical; conditions: @ 10 μM
# [8] = target: MAPK2(h) (Homo sapiens, UniProt P28482); assay: Isolated kinase activity, MAPK2; assay type: biochemical; conditions: @ 10 μM
# [9] = target: Abl(h) (Homo sapiens, UniProt P00519); assay: Isolated kinase activity, Abl; assay type: biochemical; conditions: @ 10 μM
# [10] = target: PKCα(h) (Homo sapiens, UniProt P17252); assay: Isolated kinase activity, PKCα; assay type: biochemical; conditions: @ 10 μM
# [11] = target: PDGFRβ(h) (Homo sapiens, UniProt P09619); assay: Isolated kinase activity, PDGFRβ; assay type: biochemical; conditions: @ 10 μM
# [12] = test system: total phosphotyrosine; assay: Total phosphotyrosine levels in cells; assay type: cell-based; conditions: HT29 and c-Src527F/NIH-3T3 cells
# Experimental: as §5
# [13] = target: EGFR(h) (Homo sapiens, UniProt P00533); assay: Isolated kinase activity, EGFR; assay type: biochemical; conditions: @ 10 μM
# [14] = test system: FAK Y397; assay: FAK autophosphorylation in whole cells; assay type: cell-based; conditions: c-Src527F/NIH3T3 cells
# Experimental: as §5
# FAK Y397 is mainly a FAK autophosphorylation site and only a poor Src transphorylation site. AZ28 is not a potent FAK inhibitor (see isolated enzyme data in Example 8).
# [15] = target: T1, PDGF receptor tyrosine kinase Y572/574 (Mus musculus, UniProt P26618); assay: PDGF receptor autophosphorylation in whole cells; assay type: cell-based
# T1 construct: endogenous in cells; host or cells: c-Src527F/NIH-3T3
# Experimental: as §5
# This is thought not to be a direct Src substrate in cells.
# [16] = target: T2, Src (Homo sapiens, UniProt P12931, Y530F); assay: Src kinase activity in whole cells (auto- and transphosphorylation, PAGE/antibodies); assay type: cell-based
# T2 construct: expressed in transfected cells; host or cells: c-Src527F/NIH-3T3 (mouse fibroblasts transfected with human c-Src Y527F); part of the results come from HT-29 (endogenous human Src)
# Experimental: as §5
# [17] = test system: PI3 kinase; assay: Isolated kinase activity, PI3 kinase; assay type: biochemical; conditions: @ 10 μM
# [18] = target: Fyn(h) (Homo sapiens, UniProt P06241); assay: Isolated kinase activity, Fyn; assay type: biochemical; conditions: @ 10 μM
# [19] = target: FGFR2(h) (Homo sapiens, UniProt P21802); assay: Isolated kinase activity, FGFR2; assay type: biochemical; conditions: @ 10 μM
# [20] = target: IR(h) (Homo sapiens, UniProt P06213); assay: Isolated kinase activity, IR; assay type: biochemical; conditions: @ 10 μM
# [21] = target: isolated FAK (Homo sapiens, UniProt Q05397); assay: Titration against isolated FAK; assay type: biochemical
# [22] = test system: c-Src527F/NIH3T3 cells; assay: Cell growth inhibition (BrdU assay), c-Src 3T3; assay type: cell-based; conditions: Mus musculus
# Experimental: The cells were routinely cultured in DMEM supplemented with Fetal Bovine Serum (2.0% v/V), L-glutamine (2 mM) and Sodium Pyruvate (1 mM).
# as §1, §2, §3, §4
# [23] = target: IGF-1R(h) (Homo sapiens, UniProt P08069); assay: Isolated kinase activity, IGF-1R; assay type: biochemical; conditions: @ 10 μM
# [24] = target: isolated Src (Homo sapiens, UniProt P12931); assay: Titration against isolated Src; assay type: biochemical
# [25] = target: Pyk2(h) (Homo sapiens, UniProt Q14289); assay: Isolated kinase activity, Pyk2; assay type: biochemical; conditions: @ 10 μM
# [26] = test system: Jurkat cells; assay: Leukemia cell growth inhibition, Jurkat; assay type: cell-based; conditions: Homo sapiens; Jurkat (Adult T cell leukemia)
# [27] = test system: HT29 (human colon cancer) xenograft; assay: Oral potency in staged HT29 mouse xenografts; conditions: 25 mg/kg bid; at day 5 dose lowered to 15 mg/kg bid
# [28] = test system: H460 cells; assay: Dasatinib-resistant cell growth inhibition (MTT), H460; assay type: cell-based; conditions: Homo sapiens, NCI-H460, 8.0×10^3 cells/well, 1.5% FBS, 78 Hr
# Experimental: The OD570 was measured using microplate reader. Growth inhibition curves and EC50/IC50 were determined using GraphPad Prism 4 statistical software. Data was normalized to represent percent of maximum response.
# [29] = test system: L3.6pl cell line; assay: Cell growth inhibition (BrdU assay), L3.6pl; assay type: cell-based, human
# Description: L3.6pl cells are previously described in Trevino et al. Am J. Pathol.
# [30] = test system: HBV; assay: HBV primary assay (HepG2-2.2.15 antiviral assay); assay type: cell-based; conditions: Hepatitis B virus, Test Concentration 10 μM, read-out: Antiviral Activity Percent inhibition of cell control
# Experimental: The HBV primary assay developed was conducted similarly to that described by Korba et al., (Antiviral Res. 15: 217-228 (1991) and Antiviral Res. 19: 55-70 (1992)) with the exception that viral DNA detection and quantification have been improved and simplified (Korba et al., Antiviral Res. 19: 55-70 (1992)).
# The HepG2-2.2.15 is a stable cell line producing high levels of the wild-type aywl strain of HBV. Briefly, HepG2-2.2.15 cells were plated in 96-well plates. Only the interior wells were utilized to reduce “edge effects” observed during cell culture; the exterior wells are filled with complete medium to help minimize sample evaporation. […] Six days following the initial administration of the test compound, the cell culture supernatant was collected, treated with pronase and DNAse and then used in a real-time quantitative TaqMan PCR assay for direct measurement of HBV DNA copies using an ABI Prism 7900 sequence detection system (Applied Biosystems, Foster City, Calif.).
# The antiviral activity of each test compound was calculated by comparing its HBV DNA copies against that of the untreated control cells (100%) to derive percent inhibition level. […] Cytotoxicity of the compound was determined by comparing its cell viability with that of the untreated cell control to derive percentage of the cell control.
# [31] = test system: SKOV-3 cells; assay: Cell growth inhibition (BrdU assay), SKOV-3; conditions: SKOV-3 (Ovarian); Drug 1 = taxol
# Experimental: (§6) Cell lines being evaluated are: SKOV-2, K562, HT-29, A549, and MDA231. […] Except MDA231, this line is grown at 37° C. and 0% CO2.
# (§7) Except MDA231, this line is grown at 37° C. and 0% CO2. Brdu assay was performed at T=0 and T=72.
# (§8) Growth Inhibition. The BrdU data was used to determine the % growth inhibition for each sample concentration using the formula:
# (§9) where T0=Fluorescence of cells at time 0; T1=Fluorescence of treated cells at x hours; Con=Fluorescence of control cells at x hours. T1 values T0 values were designated as T, cytotoxicity. The GI50 was estimated using XLFit excluding T1 values T0 (cytotoxicity).
# [32] = test system: A549 cells; assay: Cell growth inhibition (BrdU assay), A549; assay type: cell-based, human; conditions: A549 (Lung); Drug 1 = Tarceva
# Experimental: as §6, §7, §8, §9
# Chain of isolated FAK (Q05397 whole entry): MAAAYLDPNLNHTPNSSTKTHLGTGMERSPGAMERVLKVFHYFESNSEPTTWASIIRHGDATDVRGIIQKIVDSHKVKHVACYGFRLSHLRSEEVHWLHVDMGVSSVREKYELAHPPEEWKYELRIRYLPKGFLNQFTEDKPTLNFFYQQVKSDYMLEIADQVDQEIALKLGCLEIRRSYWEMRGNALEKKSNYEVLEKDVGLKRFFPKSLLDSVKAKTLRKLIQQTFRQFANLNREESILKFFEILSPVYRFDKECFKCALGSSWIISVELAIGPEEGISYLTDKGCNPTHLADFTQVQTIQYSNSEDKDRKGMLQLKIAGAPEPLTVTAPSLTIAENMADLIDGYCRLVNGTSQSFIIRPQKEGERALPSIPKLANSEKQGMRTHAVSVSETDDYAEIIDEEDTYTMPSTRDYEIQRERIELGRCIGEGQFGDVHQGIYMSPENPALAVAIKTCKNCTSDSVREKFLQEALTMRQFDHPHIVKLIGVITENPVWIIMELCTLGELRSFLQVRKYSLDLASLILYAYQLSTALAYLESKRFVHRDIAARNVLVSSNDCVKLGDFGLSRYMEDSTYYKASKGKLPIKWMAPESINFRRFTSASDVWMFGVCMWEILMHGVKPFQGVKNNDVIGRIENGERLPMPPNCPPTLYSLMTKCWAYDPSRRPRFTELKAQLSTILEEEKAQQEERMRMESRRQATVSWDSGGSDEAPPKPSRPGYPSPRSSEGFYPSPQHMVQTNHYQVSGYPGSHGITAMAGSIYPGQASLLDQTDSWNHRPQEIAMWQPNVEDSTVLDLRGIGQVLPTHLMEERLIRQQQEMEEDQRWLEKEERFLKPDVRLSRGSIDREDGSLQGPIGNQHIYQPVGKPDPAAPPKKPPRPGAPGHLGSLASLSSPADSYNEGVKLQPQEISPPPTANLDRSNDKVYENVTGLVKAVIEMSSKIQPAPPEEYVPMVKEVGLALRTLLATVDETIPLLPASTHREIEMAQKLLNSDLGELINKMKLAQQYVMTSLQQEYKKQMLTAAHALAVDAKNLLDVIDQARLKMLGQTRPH
# T1 sequence (P26618 25-1089): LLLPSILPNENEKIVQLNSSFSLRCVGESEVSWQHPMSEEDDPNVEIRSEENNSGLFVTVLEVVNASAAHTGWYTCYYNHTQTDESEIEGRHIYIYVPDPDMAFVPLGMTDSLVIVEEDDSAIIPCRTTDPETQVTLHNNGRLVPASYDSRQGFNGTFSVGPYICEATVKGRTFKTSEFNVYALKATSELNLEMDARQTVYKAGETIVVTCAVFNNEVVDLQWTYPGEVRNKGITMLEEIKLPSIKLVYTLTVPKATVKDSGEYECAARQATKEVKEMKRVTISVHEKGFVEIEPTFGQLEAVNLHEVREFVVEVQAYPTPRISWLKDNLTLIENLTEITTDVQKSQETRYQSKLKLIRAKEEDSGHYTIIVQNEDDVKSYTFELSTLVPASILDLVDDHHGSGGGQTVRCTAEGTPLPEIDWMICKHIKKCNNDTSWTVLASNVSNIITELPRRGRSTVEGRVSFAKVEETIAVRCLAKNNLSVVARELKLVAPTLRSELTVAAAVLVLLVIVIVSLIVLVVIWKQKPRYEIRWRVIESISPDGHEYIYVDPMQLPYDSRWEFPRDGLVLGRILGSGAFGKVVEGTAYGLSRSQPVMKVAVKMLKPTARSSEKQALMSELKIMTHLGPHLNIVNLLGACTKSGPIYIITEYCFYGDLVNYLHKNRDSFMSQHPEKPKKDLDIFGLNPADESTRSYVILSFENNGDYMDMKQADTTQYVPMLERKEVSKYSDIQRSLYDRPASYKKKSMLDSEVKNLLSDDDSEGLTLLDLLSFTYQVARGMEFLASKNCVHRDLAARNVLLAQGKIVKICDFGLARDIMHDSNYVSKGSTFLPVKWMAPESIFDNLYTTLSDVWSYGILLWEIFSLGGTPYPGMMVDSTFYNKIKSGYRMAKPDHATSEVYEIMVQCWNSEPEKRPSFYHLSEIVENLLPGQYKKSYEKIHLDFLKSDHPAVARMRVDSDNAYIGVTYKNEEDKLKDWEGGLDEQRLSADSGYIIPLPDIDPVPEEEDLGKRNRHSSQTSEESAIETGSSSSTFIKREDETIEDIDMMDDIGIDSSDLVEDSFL
# Chain of IR(h) (P06213 28-1382): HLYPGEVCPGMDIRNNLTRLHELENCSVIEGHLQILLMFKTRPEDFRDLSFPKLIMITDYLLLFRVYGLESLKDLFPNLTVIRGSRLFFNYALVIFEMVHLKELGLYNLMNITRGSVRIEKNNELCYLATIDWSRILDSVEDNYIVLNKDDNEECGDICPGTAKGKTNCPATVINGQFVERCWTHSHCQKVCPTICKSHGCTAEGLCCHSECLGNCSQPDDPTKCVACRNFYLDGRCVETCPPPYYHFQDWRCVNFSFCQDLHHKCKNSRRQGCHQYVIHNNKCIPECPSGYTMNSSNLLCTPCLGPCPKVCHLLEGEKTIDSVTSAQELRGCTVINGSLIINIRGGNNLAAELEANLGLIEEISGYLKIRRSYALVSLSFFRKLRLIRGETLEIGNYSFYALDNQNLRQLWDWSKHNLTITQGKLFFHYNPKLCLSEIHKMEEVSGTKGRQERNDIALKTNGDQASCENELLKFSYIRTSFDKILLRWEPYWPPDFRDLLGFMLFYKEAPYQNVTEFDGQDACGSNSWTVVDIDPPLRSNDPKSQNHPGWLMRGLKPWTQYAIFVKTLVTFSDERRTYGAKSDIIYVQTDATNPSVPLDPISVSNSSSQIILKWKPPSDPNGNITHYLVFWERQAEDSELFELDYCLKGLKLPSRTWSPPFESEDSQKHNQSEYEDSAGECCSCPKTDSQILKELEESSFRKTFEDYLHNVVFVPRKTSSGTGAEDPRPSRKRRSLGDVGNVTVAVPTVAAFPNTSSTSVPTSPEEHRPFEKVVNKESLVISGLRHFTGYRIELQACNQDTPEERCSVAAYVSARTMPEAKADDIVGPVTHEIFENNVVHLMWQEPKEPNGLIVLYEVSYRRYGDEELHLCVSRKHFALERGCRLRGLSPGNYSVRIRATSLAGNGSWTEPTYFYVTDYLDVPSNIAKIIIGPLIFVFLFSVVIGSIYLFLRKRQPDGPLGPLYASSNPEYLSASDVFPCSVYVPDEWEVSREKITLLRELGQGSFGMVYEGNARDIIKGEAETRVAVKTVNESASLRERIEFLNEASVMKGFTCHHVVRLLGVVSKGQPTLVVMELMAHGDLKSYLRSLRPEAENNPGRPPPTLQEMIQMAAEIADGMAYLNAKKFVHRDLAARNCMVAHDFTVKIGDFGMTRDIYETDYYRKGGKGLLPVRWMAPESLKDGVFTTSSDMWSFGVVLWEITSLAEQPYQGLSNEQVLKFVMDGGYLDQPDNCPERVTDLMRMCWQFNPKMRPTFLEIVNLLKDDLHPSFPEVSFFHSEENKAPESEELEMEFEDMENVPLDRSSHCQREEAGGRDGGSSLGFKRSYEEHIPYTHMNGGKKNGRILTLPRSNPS
# Chain of Lyn(h) (P07948 whole entry): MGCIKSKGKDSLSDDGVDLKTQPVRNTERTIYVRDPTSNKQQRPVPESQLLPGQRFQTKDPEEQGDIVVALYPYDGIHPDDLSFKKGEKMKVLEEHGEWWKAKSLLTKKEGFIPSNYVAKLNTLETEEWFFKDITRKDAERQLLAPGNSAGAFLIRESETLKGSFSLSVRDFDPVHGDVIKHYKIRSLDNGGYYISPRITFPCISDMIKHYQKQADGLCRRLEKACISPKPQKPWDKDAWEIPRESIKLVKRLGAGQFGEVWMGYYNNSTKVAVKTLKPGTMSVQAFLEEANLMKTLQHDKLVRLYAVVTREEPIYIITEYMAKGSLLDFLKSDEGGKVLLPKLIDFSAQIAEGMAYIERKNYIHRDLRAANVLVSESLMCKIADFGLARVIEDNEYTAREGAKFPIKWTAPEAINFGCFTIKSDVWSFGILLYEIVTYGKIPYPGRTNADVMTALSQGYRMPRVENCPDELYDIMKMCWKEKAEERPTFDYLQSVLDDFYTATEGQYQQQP
# Chain of Lck(h) (P06239 whole entry): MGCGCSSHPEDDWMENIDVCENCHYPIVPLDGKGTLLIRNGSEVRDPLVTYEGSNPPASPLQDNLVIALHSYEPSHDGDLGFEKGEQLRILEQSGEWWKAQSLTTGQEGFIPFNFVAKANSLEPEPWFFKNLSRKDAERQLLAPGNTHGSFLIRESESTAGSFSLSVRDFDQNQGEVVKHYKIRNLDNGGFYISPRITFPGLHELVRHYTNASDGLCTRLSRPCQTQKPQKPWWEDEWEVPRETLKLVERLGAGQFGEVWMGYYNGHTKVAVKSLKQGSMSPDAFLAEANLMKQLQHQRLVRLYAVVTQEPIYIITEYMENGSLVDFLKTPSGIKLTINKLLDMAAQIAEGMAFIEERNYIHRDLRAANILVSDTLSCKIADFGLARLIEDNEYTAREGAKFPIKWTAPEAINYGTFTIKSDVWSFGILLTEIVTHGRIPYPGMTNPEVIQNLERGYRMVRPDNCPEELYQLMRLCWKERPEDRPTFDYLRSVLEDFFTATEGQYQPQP
# Chain of Yes(h) (P07947 whole entry): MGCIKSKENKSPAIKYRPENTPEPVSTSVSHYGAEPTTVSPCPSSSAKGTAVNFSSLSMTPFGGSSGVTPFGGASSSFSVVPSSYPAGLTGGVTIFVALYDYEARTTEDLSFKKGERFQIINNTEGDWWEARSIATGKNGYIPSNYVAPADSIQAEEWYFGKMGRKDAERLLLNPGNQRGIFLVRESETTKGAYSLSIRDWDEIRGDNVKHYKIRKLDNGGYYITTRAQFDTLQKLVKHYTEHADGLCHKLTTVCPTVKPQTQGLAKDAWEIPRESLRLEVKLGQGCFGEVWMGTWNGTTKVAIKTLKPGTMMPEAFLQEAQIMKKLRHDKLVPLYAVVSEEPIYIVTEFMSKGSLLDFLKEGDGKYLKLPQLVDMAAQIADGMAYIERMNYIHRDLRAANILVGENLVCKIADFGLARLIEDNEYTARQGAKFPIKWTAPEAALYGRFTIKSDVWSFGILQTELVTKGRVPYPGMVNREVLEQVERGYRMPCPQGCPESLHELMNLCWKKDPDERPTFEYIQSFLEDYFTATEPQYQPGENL
smiles,measurement,setting,value
O=C1[O][Pt]2([NH][C@@H]3CCCC[C@H]3[NH]2)[O]C1=O [oxaliplatin],Drug 1:compound (I) GI50 ratio,"[1]; HT29 (Colon), Drug 1 = oxaliplatin",59
COc1cc2c(Nc3c(Cl)ccc4c3OCO4)ncnc2cc1OCCCN1CCCCC1 [KX2-328],percent activity of isolated kinase relative to control (untreated),[2],1%
same,EGFR tyrosine kinase autophosphorylation,[3],potently inhibits
same,induction of apoptosis (Caspase-3 cleavage),[4],not effective in inducing apoptosis
same,percent activity of isolated kinase relative to control (untreated),[5],1%
same,percent activity of isolated kinase relative to control (untreated),[6],0%
same,percent activity of isolated kinase relative to control (untreated),[7],97%
same,percent activity of isolated kinase relative to control (untreated),[8],105%
same,percent activity of isolated kinase relative to control (untreated),[9],1%
same,percent activity of isolated kinase relative to control (untreated),[10],111%
same,percent activity of isolated kinase relative to control (untreated),[11],98%
same,total phosphotyrosine levels,[12],reduction in the total phosphotyrosine levels
same,percent activity of isolated kinase relative to control (untreated),[13],3%
same,FAK autophosphorylation (Y397),[14],some inhibition
same,PDGF receptor autophosphorylation (Y572/574),[15],dose response reduction
same,phosphorylation of Paxillin Y-31 (Src transphosphorylation substrate),[16]; c-Src527F/NIH-3T3 cells,inhibited Src trans-phosphorylation
same,phosphorylation of FAK Tyr 925 (Src transphosphorylation substrate),[16]; whole cells,inhibited Src trans-phosphorylation
same,phosphorylation of Shc Y239/240 (Src transphosphorylation substrate),[16]; whole cells,inhibited Src trans-phosphorylation
same,percent activity of isolated kinase relative to control (untreated),[17],99%
same,percent activity of isolated kinase relative to control (untreated),[18],2%
same,percent activity of isolated kinase relative to control (untreated),[19],94%
same,percent activity of isolated kinase relative to control (untreated),[20],125%
same,IC50,[21],> 500 nM
same,fold less potent against isolated FAK (than isolated Src),[21],≥ 100 ×
same,GI50,"[22]; NIH3T3, c-Src 3T3",99 nM
same,GI50,"[22]; NIH3T3, c-Src527F/NIH3T3",87 nM
same,GI50,"[22]; NIH3T3, c-Src/NIH-3T3 engineered cell line",99 nM
same,activity at 0.1 µM,"[22]; NIH3T3, 100 nM, read-out: c-Src 3T3 Growth, % of Control, Mean, n = 3",13%
same,activity at 1 µM,"[22]; NIH3T3, 1.0 uM, read-out: c-Src 3T3 Growth, % of Control, Mean, n = 3",< 0%
same,activity at 10 µM,"[22]; NIH3T3, 10 uM, read-out: c-Src 3T3 Growth, % of Control, Mean, n = 3",< 0%
same,percent activity of isolated kinase relative to control (untreated),[23],110%
same,IC50,[24],8 nM
same,fold less potent against cell growth than against isolated Src,[24],10-100 ×
same,GI50,"[1]; Homo sapiens, HT-29, HT29 (Colon), read-out: GI50",647 nM
same,GI50,"[1]; Homo sapiens, HT-29, HT29, read-out: GI50",794 nM
same,GI50,"[1]; Homo sapiens, HT-29, NCI human colon cancer cell line HT29",794 nM
same,activity at 0.05 µM,"[1]; Homo sapiens, HT-29, 50 nM, read-out: HT-29 Growth, % of Control, Mean, n = 3",73%
same,activity at 0.5 µM,"[1]; Homo sapiens, HT-29, 500 nM, read-out: HT-29 Growth, % of Control, Mean, n = 3",10%
same,activity at 5 µM,"[1]; Homo sapiens, HT-29, 5 uM, read-out: HT-29 Growth, % of Control, Mean, n = 3",< 0%
same,percent activity of isolated kinase relative to control (untreated),[25],43%
Cc1nc(Nc2ncc(C(=O)Nc3c(C)cccc3Cl)s2)cc(N2CCN(CCO)CC2)n1 [Dasatinib],GI50,[26],8 nM
same,body weight,[27],weight loss
same,IC50,[28],90 nM
"Nc1ccn([C@@H]2O[C@H](CO)[C@@H](O)C2(F)F)c(=O)n1 [Gemcitabine, gemcitabine]",GI50,"[29]; Homo sapiens, L3.6pl, BrdU, T=72, read-out: GI50, Single",1.76 nM
same,Drug 1:compound (I) GI50 ratio,"[29]; L3.6pl (Pancreas), Drug 1 = Gemcitabine",1/13
"O=C(Cc1ccc(-c2ccc(OCCN3CCOCC3)cc2)cn1)NCc1ccccc1 [Compound (I): 2HCl, 2-(5-(4-(2-morpholinoethoxy)phenyl)pyridin-2-yl)-N-benzylacetamide dihydrochloride salt]",inhibition at 10 µM,[30],48.2%
CC(=O)O[C@H]1C(=O)[C@@]2(C)[C@H]([C@H](OC(=O)c3ccccc3)[C@]3(O)C[C@H](OC(=O)[C@H](O)[C@@H](NC(=O)c4ccccc4)c4ccccc4)C(C)=C1C3(C)C)[C@]1(OC(C)=O)CO[C@@H]1C[C@@H]2O [taxol],Drug 1:compound (I) GI50 ratio,[31],0.40
C#Cc1cccc(Nc2ncnc3cc(OCCOC)c(OCCOC)cc23)c1 [Tarceva],Drug 1:compound (I) GI50 ratio,[32],134
